From US10118894B2, “Isoindolinone derivatives useful as antiviral agents” (priority 2014, dated 2018)
pIC50: −log10 of the molar value.

system: HIV; assay: MT4 Assay (anti-HIV activity); assay type: cell-based; conditions: Human immunodeficiency virus 1, MT4, 96 h, read-out: HIV MT4 Assay IC50
Experimental: Antiviral HIV activity and cytotoxicity values for compounds of the invention from Table 1 were measured in parallel in the HTLV-1 transformed cell line MT-4 based on the method previously described (Hazen et al., 2007, In vitro antiviral activity of the novel, tyrosyl-based human immunodeficiency virus (HIV) type 1 protease inhibitor brecanavir (GW640385) in combination with other antiretrovirals and against a panel of protease inhibitor-resistant HIV (Hazen et al., “In vitro antiviral activity of the novel, tyrosyl-based human immunodeficiency virus (HIV) type 1 protease inhibitor brecanavir (GW640385) in combination with other antiretrovirals and against a panel of protease inhibitor-resistant HIV”, Antimicrob. Agents Chemother. 2007, 51: 3147-3154; and Pauwels et al., “Sensitive and rapid assay on MT-4 cells for the detection of antiviral compounds against the AIDS virus”, J. of Virological Methods 1987, 16: 171-185).
Luciferase activity was measured 96 hours later by adding a cell titer glo (Promega, Madison, Wis.). Percent inhibition of cell protection data was plotted relative to no compound control. Under the same condition, cytotoxicity of the compounds was determined using cell titer Glo™ (Promega, Madison, Wis.). IC50s were determined from a 10 point dose response curve using 3-4-fold serial dilution for each compound, which spans a concentration range >1000 fold.
These values are plotted against the molar compound concentrations using the standard four parameter logistic equation: y=((Vmax*x^n)/(K^n+x^n))+Y2

Row | SMILES | pIC50
1 | Cc1c2c(c(C)c(C(OC(C)(C)C)C(=O)O)c1-c1ccc3c(c1)CCCO3)C(=O)N(Cc1ccccc1)C2 (stereo not shown) [Example 4, 2-(2-benzyl-6-(chroman-6-yl)-4,7-dimethyl-3-oxoisoindolin-5-yl)-2-(tert-butoxy)acetic acid] | 7.28
2 | Cc1c(-c2c(C)c3c(c(C)c2[C@H](OC(C)(C)C)C(=O)O)C(=O)N(Cc2ccccc2)C3)cc(F)c2c1CCCO2 (atropisomer, axis not shown; (M)) [Example 5, (S)-2-((M)-2-Benzyl-6-(8-fluoro-5-methylchroman-6-yl)-4,7-dimethyl-3-oxoisoindolin-5-yl)-2-(tert-butoxy)acetic acid] | 8.30
3 | Cc1ccc(-c2c(C)c3c(c(C)c2C(OC(C)(C)C)C(=O)O)C(=O)N(Cc2ccccc2)C3)cc1 (stereo not shown) [Example 1, 2-(2-Benzyl-4,7-dimethyl-3-oxo-6-(p-tolyl)isoindolin-5-yl)-2-(tert-butoxy)acetic acid] | 7.60
4 | Cc1c2c(c(C)c([C@H](OC(C)(C)C)C(=O)O)c1C1=CCC(C)(C)CC1)C(=O)N(Cc1ccccc1)C2 [Example 6, (S)-2-(2-benzyl-6-(4,4-dimethylcyclohex-1-en-1-yl)-4,7-dimethyl-3-oxoisoindolin-5-yl)-2-(tert-butoxy)acetic acid] | 7.44
5 | Cc1c2c(c(C)c(C(OC(C)(C)C)C(=O)O)c1-c1ccc(Cl)cc1)C(=O)N(Cc1ccccc1)C2 (stereo not shown) [Example 3, 2-(2-benzyl-6-(4-chlorophenyl)-4,7-dimethyl-3-oxoisoindolin-5-yl)-2-(tert-butoxy)acetic acid] | 7.07
6 | Cc1c(-c2c(C)c3c(c(C)c2[C@H](OC(C)(C)C)C(=O)O)C(=O)N(Cc2ccccc2)C3)cc(F)c2c1NCCO2 (atropisomer, axis not shown; (M)) [Example 7, (S)-2-((M)-2-benzyl-6-(8-fluoro-5-methyl-3,4-dihydro-2H-benzo[b][1,4]oxazin-6-yl)-4,7-dimethyl-3-oxoisoindolin-5-yl)-2-(tert-butoxy)acetic acid] | 7.85
7 | Cc1ccc(-c2c(C)c3c(c(C)c2[C@H](OC(C)(C)C)C(=O)O)C(=O)N(Cc2ccccc2)C3)cc1 [Example 2] | 7.38
